≈ marks a conversion by molar mass, not a printed value. Read-outs that look alike come from different tables or passages of the source. Marks after values point to notes of the source that are not given here.
What was measured:
[1] = Aqueous solubility determination (Multiscreen solubility filter plate, UV/vis); format: physicochemical; conditions: universal aqueous buffer, pH 7.4, aqueous buffer, kinetic from dmso stock, universal aqueous buffer pH 7.4, 90 min, room temperature
Experimental: Aqueous Solubility Determination. The following procedure was used to obtain the aqueous solubility results summarized in Example 8. Step 1. Determination of optimal UV/vis wavelengths and generation of standard curves for a compound of interest: • (1) For eight standard calibration curves (one plate), prepare 34 mL of 50:50 (v:v) universal buffer:acetonitrile in a 50 mL tube. • (2) Using a multichannel pipet, dispense (in μL) the buffer:acetonitrile in a deep well plate as follows:
• (6) Cover plate with lid and shake (200-300 rpm) at room temperature for 20 minutes. • (7) Mix all wells by pipetting up and down 10 times. • (8) Transfer 120 μL from each well to a UV transparent plate. Cover and shake for 3-5 minutes. Remove any bubbles in the wells using a pipet. • (9) Read from 220 nm to 500 nm at 10 nm increments on a spectrophotometer (e.g., SpectraMax®).
Step 2. Compound Solubility Testing Procedures Using the Millipore™ Multiscreen® Solubility Filter Plate.
Universal Aqueous Buffer: • (a) To prepare 500 mL of universal buffer, add the following: 250 mL Nanopure water; 1.36 mL (45 mM) ethanolamine; 3.08 g (45 mM) potassium dihydrogen phosphate; 2.21 g (45 mM) potassium acetate; thoroughly mix. • (b) Adjust pH to 7.4 with HCl and q.s. to 500 mL with 0.15 M KCl. • (c) Filter to remove particulates and reduce bacterial growth. • (d) Store at 4° C. in the dark.
Solubility Protocol: • (a) Add 285 μL of Universal Aqueous Buffer to desired wells of the Millipore™ Multiscreen® Solubility filter plate. • (b) Add 15 μL of 10 mM compound in DMSO to the appropriate wells. Add 15 μL of 100% DMSO only to 6 wells of the filter plate for blanks. • (c) Using a multichannel pipet, mix wells by pipetting up and down 10 times. Be careful not to touch the filters in the plate with the tips. • (d) Cover and gently shake (200-300 rpm) filter plate for 90 minutes at room temperature. • (e) Vacuum filter the aqueous solution from the Multiscreen® solubility filter plate into a polypropylene V-bottom plate. • (f) Transfer 60 μL of filtrate to a UV transparent plate (Greiner® UV-Star Analysis Plate). • (g) Add 60 μL of acetonitrile to each well and mix by pipetting up and down 10 times. • (h) Cover and gently shake for 3-5 minutes. Remove any bubbles with a pipet. • (i) Measure the absorbance of each well in the plate on the spectrophotometer (UV/vis) at the desired wavelength. For compounds in a plate with different absorbance peaks, set the spectrophotometer to read a spectrum (e.g., from 220 nm to 460 nm). • (j) Identify concentration using measured absorbance for each compound and the predetermined standard curve (see Step 1).

RAW264.7 macrophages = test: Cell viability, WST-1 reagent; format: cell-based, mouse; conditions: RAW264.7 (20 ng/ml IFNγ)
Experimental: (§1) FIGS. 1-8 and 32-34. Inhibition of NO Production. RAW264.7 macrophages were pre-treated with DMSO or drugs at various concentrations (nM) for 2 hours, then treated with 20 ng/ml IFNγ for 24 hours. NO concentration in media was determined using a Griess reagent system; cell viability was determined using WST-1 reagent.
(§2) Nitric Oxide production and cell viability. RAW264.7 macrophages were pre-treated with DMSO or drugs for 2 hours, then treated with recombinant mouse IFNγ (Sigma) for 24 hours. NO concentration in media was determined using the Griess reagent system (Promega). Cell viability was determined using WST-1 reagent (Roche).

HO-1 = test: Nrf2 target gene induction, HO-1 mRNA (qPCR); format: cell-based, human; conditions: MDA-MB-435 cells
Experimental: FIGS. 17-20. Induction of HO-1. MDA-MB-435 human melanoma cells were treated with vehicle (DMSO) or the indicated compounds and concentrations for 16 hours. HO-1 mRNA levels were quantified using qPCR and were normalized relative to a DMSO-treated sample run in parallel. Values are averages of duplicate wells.
(§3) FIG. 21. Induction of HO-1, TrxR1 and γ-GCS. MDA-MB-435 human melanoma cells were treated with vehicle (DMSO) or the indicated compounds and concentrations for 16 hours. HO-1, thioredoxin reductase-1 (TrxR1), and γ-glutamylcysteine synthetase (γ-GCS) mRNA levels were quantified using qPCR and were normalized relative to a DMSO-treated sample run in parallel. Values are averages of duplicate wells.
(§4) Nrf2 target gene induction. MDA-MB-435 human melanoma cells were treated with vehicle (DMSO) or the indicated compounds and concentrations for 16 hours. HO-1, thioredoxin reductase-1 (TrxR1), γ-glutamylcysteine synthetase (γ-GCS), and ferritin heavy chain mRNA levels were quantified using qPCR and were normalized relative to a DMSO-treated sample run in parallel. Values are averages of duplicate wells. Primer sequences are as follows.

[2] = system: IFNγ-induced NO production in RAW264.7 macrophages; test: Suppression of IFNγ-induced NO production (Griess reagent); format: cell-based, mouse; conditions: RAW264.7, 20 ng/ml IFNγ 24 h, 2 h pre-treatment
Experimental: as §1, §2

[3] = system: thioredoxin reductase-1 (TrxR1); test: Nrf2 target gene induction, TrxR1 mRNA (qPCR); format: cell-based, human; conditions: MDA-MB-435 cells, 400 nM; percent of induction observed for 402
Experimental: as §3
FIG. 22. Induction of TrxR1. MDA-MB-435 human melanoma cells were treated with vehicle (DMSO) or the indicated compounds and concentrations for 16 hours. Thioredoxin reductase-1 (TrxR1) mRNA levels were quantified using qPCR and were normalized relative to a DMSO-treated sample run in parallel. Values are averages of duplicate wells. Compounds 401, 402-19 and 402-53 are comparison compounds (see Example 1).
as §4

mice = conditions: sesame oil, N=4
[4] = system: γ-glutamylcysteine synthetase (γ-GCS); test: Nrf2 target gene induction, γ-GCS mRNA (qPCR); format: cell-based, human; conditions: MDA-MB-435 cells
Experimental: as §3
FIG. 23. Induction of γ-GCS. MDA-MB-435 human melanoma cells were treated with vehicle (DMSO) or the indicated compounds and concentrations for 16 hours. γ-glutamylcysteine synthetase (γ-GCS) mRNA levels were quantified using qPCR and were normalized relative to a DMSO-treated sample run in parallel. Values are averages of duplicate wells.
as §4

NQO1 = test: Nrf2 target gene induction, NQO1; format: cell-based, human; conditions: MDA-MB-435 cells, 250 nM; fold induction above DMSO control
[5] = 400 nM, percent of induction observed for 402
[6] = 250 nM, fold induction above DMSO control

Row | SMILES | solubility at 90 min [1] [µM] | IC50 (RAW264.7 macrophages; Mus musculus) [nM] | IC50 ([2]; Mus musculus) [nM] | HO-1 induction (HO-1; [6]) [fold] | NQO1 induction (NQO1) [fold] | other results
1 | CC1(C)CC[C@]2(CNC(=O)C(F)(F)F)CC[C@]3(C)[C@H](C(=O)C[C@@H]4[C@@]5(C)C=C(C#N)C(=O)C(C)(C)[C@@H]5CC[C@]43C)[C@@H]2C1 [Compound 63226] | 0.71 (≈ 0.408 µg/mL) |  |  |  |  | 
2 | Cc1cc(CNC[C@]23CCC(C)(C)C[C@H]2[C@H]2C(=O)C[C@@H]4[C@@]5(C)C=C(C#N)C(=O)C(C)(C)[C@@H]5CC[C@@]4(C)[C@]2(C)CC3)no1 [Compound 63232] | 0.75 (≈ 0.43 µg/mL) |  |  |  |  | 
3 | CC1(C)CC[C@]2(C(=O)O)CC[C@]3(C)[C@H](C(=O)CC4[C@@]5(C)C=C(C#N)C(=O)C(C)(C)[C@@H]5CC[C@]43C)[C@@H]2C1 (stereo partly drawn) [Compound 63196, (4aS,6aR,6bR,8aR,12aR,14aR,14bS)-11-cyano-2,2,6a,6b,9,9,12a-heptamethyl-10,14-dioxo-1,2,3,4,4a,5,6,6a,6b,7,8,8a,9,10,12a,12b,13,14,14a,14b-icosahydropicene-4a-carboxylic acid] |  | > 200 | ~75 |  |  | HO-1 induction (HO-1; [5]): 1%; TrxR1 induction [3]: 48%; Number of Deaths (mice; oral gavage QDx14, 10 mg/kg): 0; Number of Deaths (mice; oral gavage QDx14, 50 mg/kg): 1*; Number of Deaths (mice; oral gavage QDx14, 100 mg/kg): 0; Number of Deaths (mice; oral gavage QDx14, 250 mg/kg): 1; γ-GCS induction [4, 5]: 26%
4 | COC(=O)[C@]12CCC(C)(C)C[C@H]1[C@H]1[C@@H](O)C[C@@H]3[C@@]4(C)C=C(C#N)C(=O)C(C)(C)[C@@H]4CC[C@@]3(C)[C@]1(C)CC2 [Compound 63219] | 13.6 (≈ 6.92 µg/mL) | > 200 | ~150 |  |  | 
5 | CC1(C)CC[C@]2(CN)CC[C@]3(C)[C@H](C(=O)C[C@@H]4[C@@]5(C)C=C(C#N)C(=O)C(C)(C)[C@@H]5CC[C@]43C)[C@@H]2C1 [Compound 63214] | 112 (≈ 53.7 µg/mL) |  |  |  |  | 
6 | CC1(C)CC[C@]2(C#N)CC[C@]3(C)[C@H](C(=O)CC4[C@@]5(C)C=C(C#N)C(=O)C(C)(C)[C@@H]5CC[C@]43C)[C@@H]2C1 (stereo partly drawn) [Compound 63252, (4aR,6aR,6bR,8aS,12aS,12bR,14bR)-4,4,6a,6b,11,11,14b-heptamethyl-3,13-dioxo-3,4,4a,5,6,6a,6b,7,8,8a,9,10,11,12,12a,12b,13,14,14a,14b-icosahydropicene-2,8a-dicarbonitrile] |  | > 200 | ~5 | 5 | 3 | 
7 | CC1(C)CC[C@]2(CO)CC[C@]3(C)[C@H](C(=O)C[C@@H]4[C@@]5(C)C=C(C#N)C(=O)C(C)(C)[C@@H]5CC[C@]43C)[C@@H]2C1 [Compound 63202] | 1.89 (≈ 0.907 µg/mL) |  |  |  |  | 
8 | CC1(C)CC[C@]2(CCO)CC[C@]3(C)[C@H](C(=O)C[C@@H]4[C@@]5(C)C=C(C#N)C(=O)C(C)(C)[C@@H]5CC[C@]43C)[C@@H]2C1 [Compound 63231] | 1.23 (≈ 0.607 µg/mL) |  |  |  |  | 
9 | CC1(C)CC[C@]23CC[C@@]4(C)[C@]5(C)CC[C@H]6C(C)(C)C(=O)C(C#N)=C[C@]6(C)[C@H]5CC(=O)[C@@]4([C@@H]2C1)N(CC(F)(F)F)C3=O [Compound 63237] | 5.16 (≈ 2.96 µg/mL) | > 200 | ~80 | 3 | 2.3 | γ-GCS induction [4, 6]: 6.4 fold
10 | CC1(C)CC[C@]2([C@@H](O)CO)CC[C@]3(C)[C@H](C(=O)C[C@@H]4[C@@]5(C)C=C(C#N)C(=O)C(C)(C)[C@@H]5CC[C@]43C)[C@@H]2C1 [Compound 63221] | 8.78 (≈ 4.48 µg/mL) |  |  |  |  | 
11 | COC(=O)[C@]12CCC(C)(C)C[C@H]1[C@H]1[C@H](O)C[C@@H]3[C@@]4(C)C=C(C#N)C(=O)C(C)(C)[C@@H]4CC[C@@]3(C)[C@]1(C)CC2 [Compound 63207] |  |  |  | 1.2 | 1.6 | IC50 (RAW264.7 macrophages): > 200 nM; IC50 [2]: ~50 nM; γ-GCS induction [4, 6]: 3.1 fold
12 | COC(=O)[C@]12CCC(C)(C)C[C@H]1[C@H]1C(=O)C=C3[C@@]4(C)C=C(C#N)C(=O)C(C)(C)[C@@H]4CC[C@@]3(C)[C@]1(C)CC2 [Compound 402, reference compound] | 1.46 (≈ 0.738 µg/mL) |  |  |  |  | 
13 | CC1(C)CC[C@]2(C=O)CC[C@]3(C)[C@H](C(=O)CC4[C@@]5(C)C=C(C#N)C(=O)C(C)(C)[C@@H]5CC[C@]43C)[C@@H]2C1 (stereo partly drawn) [Compound 63206, (4aR,6aR,6bR,8aS,12aS,12bR,14bR)-8a-formyl-4,4,6a,6b,11,11,14b-heptamethyl-3,13-dioxo-3,4,4a,5,6,6a,6b,7,8,8a,9,10,11,12,12a,12b,13,14,14a,14b-icosahydropicene-2-carbonitrile] |  | > 200 | ~10 | 2.5 | 1.8 | γ-GCS induction [4, 6]: 4.5 fold
14 | CC1(C)CC[C@]2(C(N)=O)CC[C@]3(C)[C@H](C(=O)CC4[C@@]5(C)C=C(C#N)C(=O)C(C)(C)[C@@H]5CC[C@]43C)[C@@H]2C1 (stereo partly drawn) [Compound 63205, (4aS,6aR,6bR,8aR,12aR,14aR,14bS)-11-cyano-2,2,6a,6b,9,9,12a-heptamethyl-10,14-dioxo-1,2,3,4,4a,5,6,6a,6b,7,8,8a,9,10,12a,12b,13,14,14a,14b-icosahydropicene-4a-carboxamide] |  | > 200 | ~25 | 1.7 | 1.7 | γ-GCS induction [4, 6]: 3.5 fold
